Assay results reported in patent US20230321253A1, “BIFUNCTIONAL COMPOUNDS AND PHARMACEUTICAL USES THEREOF” (RISEN (SUZHOU) PHARMA TECH CO., LTD., priority 2022, published 2023).

Key:
KRAS-G12D protein = molecular target: T1, KRAS-G12D protein (Homo sapiens, UniProt P01116, G12D); experiment: KRAS-G12D protein degradation study in Aspc-1 cells (western blot); format: cell-based; conditions: for inhibition at 0.05 µM: ASPC1, 24 h, Aspc-1 cells treated with 50 nM compound, 24 hours, read-out: Rate of degradation (KRAS^G12D); for DC50: Aspc-1 cells, read-out: DC50 of test compound-induced KRAS^G12D protein degradation
T1 construct: host or cells: Aspc-1 cells
In short: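 AsPC-1 cells were treated with compound for 24 h at 37° C (0.1% DMSO final), then lysed; KRAS levels measured by western blot. Degradation % = 1 − (KRAS/GAPDH, compound) ÷ (KRAS/GAPDH, DMSO), ×100; DC50 derived from concentration curves.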

Aspc-1 cells = experiment: Cell proliferation study in Aspc-1 cells (Cell Titer Glo); format: cell-based; conditions: Homo sapiens, ASPC1, 72 hours, read-out: IC50, inhibitory effect on cellular proliferation
Procedure: Aspc-1 (Cobioer, CBP60546) cells were grown in RPMI 1640 (Gibco, 61870127) supplemented with 10% fetal bovine serum (Gibco, 10099141), 1% penicillin-streptomycin (Gibco, 15070-063). Aspc-1 cells in exponential growth phase were seeded into 96-well plate (Corning, 3599) at density of 4×10^3/well. Cells were cultured overnight at 37° C. with 5% CO2. On the next day, cells were treated with test compound at various concentrations for 72 hours in 37° C., 5% CO2 incubator (final DMSO concentration was 0.1%). After treatment, 100 μL Cell Tier Glo (Promega, G7573) was added to every well of the cell plates and the plates were incubated at room temperature (RT) for 10 minutes. Cell growth status was measured with Cell Tier Glo (Promega, G7573) following the manufacturer's instructions. The inhibition curve was obtained with GraphPad 7.0 software using four-parameter equation.

T1 sequence (P01116 1-188 isoform P01116-2 G12D): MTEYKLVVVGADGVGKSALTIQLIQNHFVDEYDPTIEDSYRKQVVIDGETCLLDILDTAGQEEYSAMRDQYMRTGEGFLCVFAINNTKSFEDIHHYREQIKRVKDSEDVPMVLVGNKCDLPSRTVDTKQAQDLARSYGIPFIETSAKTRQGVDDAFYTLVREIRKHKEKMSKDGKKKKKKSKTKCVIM

`C#Cc1c(F)ccc2cc(O)cc(-c3ncc4c(N5CC6CCC(C5)N6)nc(OCC5(CN6CCC7(CC6)CC(N6CCN(c8ccc9c(c8)C(=O)N(C8CCC(=O)NC8=O)C9=O)CC6)C7)CC5)nc4c3F)c12` (stereo not shown) [Compound 154] was tested, and the inhibition at 0.05 µM (KRAS-G12D protein) was over 60%, the DC50 (KRAS-G12D protein) was under 10 nM and the IC50 (Aspc-1 cells) was under 100 nM.
For `C#Cc1c(F)ccc2cc(O)cc(-c3ncc4c(N5CC6CCC(C5)N6)nc(OCC5(CN6CCCN(C(=O)CN7CCC(c8ccc9c(C%10CCC(=O)NC%10=O)nn(C)c9c8)CC7)CC6)CC5)nc4c3F)c12` (stereo not shown) [Compound 155], the inhibition at 0.05 µM (KRAS-G12D protein) was over 60%, the DC50 (KRAS-G12D protein) was 11 to 50 nM and the IC50 (Aspc-1 cells) was under 100 nM.
Work on `CCc1c(F)ccc2cc(O)cc(-c3ncc4c(N5CC6CCC(C5)N6)nc(OCC5(CN6CCC(C(=O)N7CCC8(CC7)CC(N7CCC(c9ccc%10c(C%11CCC(=O)NC%11=O)nn(C)c%10c9)CC7)C8)CC6)CC5)nc4c3F)c12` (stereo not shown) [Compound 156] yielded an inhibition at 0.05 µM (KRAS-G12D protein) of 31 to 60%, a DC50 (KRAS-G12D protein) of under 10 nM and an IC50 (Aspc-1 cells) of under 100 nM.
Work on `C#Cc1c(F)ccc2cc(O)cc(-c3ncc4c(N5CC6CCC(C5)N6)nc(OCC5(CN6CCC7(CC6)CC(N6CCC(c8cccc9c8CN(C8CCC(=O)NC8=O)C9=O)CC6)C7)CC5)nc4c3F)c12` (stereo not shown) [Compound 157] yielded an inhibition at 0.05 µM (KRAS-G12D protein) of 11 to 30%, a DC50 (KRAS-G12D protein) of over 200 nM and an IC50 (Aspc-1 cells) of 101 to 1000 nM.
In the case of `C#Cc1c(F)ccc2cc(O)cc(-c3ncc4c(N5CC6CCC(C5)N6)nc(OCC5(CN6CCC7(CC6)CC(N6CCC(c8ccc9c%10c(cccc8%10)C(=O)N9C8CCC(=O)NC8=O)CC6)C7)CC5)nc4c3F)c12` (stereo not shown) [Compound 158], the inhibition at 0.05 µM (KRAS-G12D protein) is reported as over 60%, the DC50 (KRAS-G12D protein) is reported as under 10 nM and the IC50 (Aspc-1 cells) is reported as under 100 nM.
Molecule `CCc1c(F)ccc2cc(O)cc(-c3ncc4c(N5CC6CCC(C5)N6)nc(OCC5(CN6CCC7(CC6)CC(N6CCC(c8ccc9c(C%10CCC(=O)NC%10=O)nn(C)c9c8)CC6)C7)CC5)nc4c3F)c12` (stereo not shown) [Compound 160] has an inhibition at 0.05 µM (KRAS-G12D protein) of over 60%, a DC50 (KRAS-G12D protein) of under 10 nM and an IC50 (Aspc-1 cells) of under 100 nM.
Work on `C#Cc1c(F)ccc2cc(O)cc(-c3ncc4c(N5CC6CCC(C5)N6)nc(OCC5(CN6CCC7(CC6)CC(N6CCC(c8ccc9c(c8)n(C)c(=O)n9C8CCC(=O)NC8=O)CC6)C7)CC5)nc4c3F)c12` (stereo not shown) [Compound 164] yielded an inhibition at 0.05 µM (KRAS-G12D protein) of over 60%, a DC50 (KRAS-G12D protein) of under 10 nM and an IC50 (Aspc-1 cells) of under 100 nM.
Molecule `C#Cc1c(F)ccc2cc(O)cc(-c3ncc4c(N5CC6CCC(C5)N6)nc(OCC5(CN6CCC(CN7CCC(c8ccc9c%10c(cccc8%10)C(=O)N9C8CCC(=O)NC8=O)CC7)CC6)CC5)nc4c3F)c12` (stereo not shown) [Compound 168] has an inhibition at 0.05 µM (KRAS-G12D protein) of over 60% and an IC50 (Aspc-1 cells) of under 100 nM.
`C#Cc1c(F)ccc2cc(O)cc(-c3ncc4c(N5CC6CCC(C5)N6)nc(OCC5(CN6CC7(CC(N8CCC(c9ccc%10c(C%11CCC(=O)NC%11=O)nn(C)c%10c9)CC8)C7)C6)CC5)nc4c3F)c12` (stereo not shown) [Compound 169] was tested, and the inhibition at 0.05 µM (KRAS-G12D protein) was over 60% and the IC50 (Aspc-1 cells) was under 100 nM.
